Laboratory results: patent US9597311B2, “Suppression and prevention of tumors” (priority 2005, dated 2017)

Test: Additional benefits of taking betaine in people
Assay type: in vivo
Description: While the main benefit of a person or pet taking vitamin C and betaine in combination is the prevention/suppression of tumors, as mentioned before, additional benefits can be obtained depending upon the levels taken. Betaine is known to improve cardiovascular health, and can benefit people with fatty deposits in the liver. […] After only a few weeks of taking the betaine, cholesterol levels are reduced and the ability to lose weight is improved.

C[N+](C)(C)CC(=O)[O-] [betaine, trimethylglycine]
tendency to be light headed when getting up after prolonged squatting or kneeling (after a few doses at about one and a half to about three grams per day, especially older people): considerably lessened | cholesterol levels (after only a few weeks of taking the betaine): reduced
